pIC50: −log10 of the molar value.
How the values were obtained:
[1] = target: central benzodiazepine receptors; assay: 3H-Flumazenil binding test in vitro; settings: inhibition of specific binding of tritiated flumazenil, rat cortex
Protocol: 3H-Flumazenil binding test
The affinity of compounds of formula I to the central benzodiazepine receptors was established in vitro according to the methods described in Nature 294, 763-765 (1981) and J. Neurochemistry 37, 714-722 (1981). According to these methods, the inhibition of the binding of tritiated flumazenil to the specific benzodiazepine receptors in the cortex of rats by the respective test substances is determined. The IC50 ("50% inhibiting concentration") denotes that concentration of the respective test substance which brings about a 50 percent inhibition of the specific binding of tritiated flumazenil to the specific benzodiazepine receptors in the cortex of rats.

rat = assay: Conflict test in the rat; assay type: in vivo; settings: po, 30 minutes before the 1-hour conflict test, read-out: Conflict test, rat, FSD (first significant anxiolytically-active dosage)
Protocol: The test apparatus is a one-key Skinner box having a feed pellet dispenser. At least 8 hungry rats are usually employed per substance and dosage for the testing of potential anxiolytics. Rats which respond to the known anxiolytic chlorodiazepoxide are used. The test substances, which are dissolved or suspended in a mixture of 10 ml of distilled water and 2 drops of Tween 80, are administered to the test animals by means of a probang 30 minutes before the 1-hour conflict test. During the test, in which each press of the key for a feed pellet is combined with a foot shock (conflict), the number key activations is registered. Each test animal serves as its own control in that it is pre-treated once with test substance and once with sodium chloride solution.
The first significant anxiolytically-active dosage (FSD) is determined with the Wilcoxon test (comparison of pairs) by comparing directly the number of key activations in the main test (feed pellet +foot shock after pre-treatment with test substance) with the number of key activations in the control test (feed pellet +foot shock after pre-treatment with sodium chloride solution).

[2] = test system: female mice (Charles-River); assay: Reversal of the action of meclonazepam in the rotating rod test; assay type: in vivo; settings: iv, 0.5 h; mouse, i.v., after 5 mg/kg meclonazepam i.p.; 50% of animals remain on rod; read-out: Anti-meclonazepam, rotating rod, mouse, ID50
Protocol: Reversal of the action of meclonazepam in the rotating rod test
Test description: female mice (Charles-River, Pans) weighing 19-21 g are used, They have free access to feed and drinking water up to 1 h; before the beginning of the test. They are brought into the test laboratory at lent 30 min. before the test.
In the rotating rod test the animals are placed on a horizontally arranged, smooth metal rod having a diameter of 3 cm, which is rotated at 2 revolutions per min. Initially, the animals are given the opportunity of familiarizing themselves with the test situation for 30sec. Subsequently, those animals which succeed in remaining on the rod for at least 1 min. are selected.
Determination of the reversal of the activity of meclonazepam: 5 mg/kg of meclonazepam are administered intraperitonally to the animals as a suspension in a 0.3% aqueous Tween 80 solution. This causes an inability to stay on the rotating red, which lasts for several hours. 20 min. later, a fine suspension of the test preparation in a 0.3% Tween 80 solution in water is administered intravenously. 30 min. later, it is determined whether the animals can stay on the rod for at least I min. The dosage at which 50% of the animals are capable of remaining on the rod is determined (ID50).

Male DBA 2J mice = assay: Audiogenic seizures (anticonvulsive test); assay type: in vivo; settings: po, 0.5 h; mouse, p.o., prevention of tonic convulsions in 50% of animals, 30 minutes before test; read-out: Audiogenic seizure, mouse, ED50
Protocol: The anticonvulsive properties of the compounds of formula I can be determined, for example, in the test described hereinafter.
The test apparatus is a soundproofed one-key box having a built-in sound source. Male DBA 2J mice aged 21 days and weighing 7-11 g are employed for the testing of the substances. These mice are an animal model for epilepsy in which sonic irradiation causes seizures. The test substances are employed as aqueous suspensions of different concentration and are administered to the experimental animals orally or intraperitonally in an amount of 10 ml/kg 30 minutes before the beginning of the test. The test animals are exposed for 60 seconds to a sonic irradiation of 110 dB/14 KHz. This produces in untreated animals symptoms such as racing around, cronic seizures and tonic convulsions. The ED50 value, that is, that dosage of a test substance which in :50% of the test animals prevents the tonic convulsions caused by the sonic irradiation, is determined.

Question: How did the pIC50 [1] turn out when `c1ccc2c(c1)-c1ncnn1Cc1c(-c3nc(C4CC4)no3)ncn1-2` [A, 10-(3-cyclopropyl-1,2,4-oxadiazol-5-yl)-9H-imidazo[1,5-a][1,2,4]triazolo[1,5-d][1,4]benzodiazepine] was run?
Answer: 8.89

Question: And the minimal effective dose (rat)?
Answer: 0.3 mg/kg

Question: What about the ED50 [2] of the same compound?
Answer: 1.5 mg/kg

Question: What does the source list for `Fc1ccc2c(c1)-c1ncnn1Cc1c(-c3nc(C4CC4)no3)ncn1-2` [B, 10-(3-cyclopropyl-1,2,4-oxadiazol-5-yl)-3-fluoro-9H-imidazo[1,5-a][1,2,4]triazolo[1,5-d][1,4]benzodiazepine]?
Answer: ED50 (Male DBA 2J mice): 0.27 mg/kg; pIC50 [1]: 8.60; minimal effective dose (rat): 0.1 mg/kg; ED50 [2]: 0.8 mg/kg

Question: With `Fc1ccc2c(c1)-c1ncnn1Cc1c(-c3noc(C4CC4)n3)ncn1-2` [C, 10-(5-cyclopropyl-1,2,4-oxadiazol-3-yl)-3-fluoro-9H-imidazo[1,5-a][1,2,4]triazolo[1,5-d][1,4]benzodiazepine] as the compound, how does the ED50 (Male DBA 2J mice) read?
Answer: 0.015 mg/kg

Question: What about the pIC50 [1] of the same compound?
Answer: 9.04

Question: What about the minimal effective dose (rat) of the same compound?
Answer: 0.003 mg/kg

Question: What about the ED50 [2] of the same compound?
Answer: 0.17 mg/kg

Question: How did the ED50 (Male DBA 2J mice) turn out when `c1ccc2c(c1)-c1ncnn1Cc1c(-c3noc(C4CC4)n3)ncn1-2` [D, 10-(5-cyclopropyl-1,2,4-oxadiazol-3-yl)-9H-imidazo[1,5-a][1,2,4]triazolo[1,5-d][1,4]benzodiazepine] was run?
Answer: 4.2 mg/kg

Question: And the pIC50 [1]?
Answer: 9.48

Question: What about the minimal effective dose (rat) of the same compound?
Answer: 3 mg/kg

Question: And the ED50 [2]?
Answer: 0.08 mg/kg

Question: Which results are given for `Clc1ccc2c(c1)-c1nccn1Cc1c(-c3noc(C4CC4)n3)ncn1-2` [E, 3-chloro-10-(5-cyclopropyl-1,2,4-oxadiazol-3-yl)-9H-diimidazo[1,5-a:1',2'-d][1,4]benzodiazepine]?
Answer: ED50 (Male DBA 2J mice): 0.21 mg/kg; pIC50 [1]: 8.54; minimal effective dose (rat): 1 mg/kg

Question: With `CCOCc1nc(-c2ncn3c2Cn2ncnc2-c2cc(F)ccc2-3)no1` [F, 10-[5-(ethoxymethyl)-1,2,4-oxadiazol-3-yl]-3-fluoro-9H-imidazo[1,5-a][1,2,4]triazolo[1,5-d][1,4]benzo-diazepine] as the compound, how does the ED50 (Male DBA 2J mice) read?
Answer: 0.11 mg/kg

Question: And the pIC50 [1]?
Answer: 8.52

Question: And the minimal effective dose (rat)?
Answer: 0.1 mg/kg

Question: And the ED50 [2]?
Answer: 1.8 mg/kg

Question: Which results are given for `Clc1cccc2c1-c1ncnn1Cc1c(-c3noc(C4CC4)n3)ncn1-2` [G, 4-Chloro-10-(5-cyclopropyl-1,2,4-oxadiazol-3-yl)-9H-imidazo[1,5-a][1,2,4]triazolo[1,5-d][1,4]benzodiazepine]?
Answer: pIC50 [1]: 9.22; ED50 [2]: 0.0047 mg/kg

Question: Which ED50 (Male DBA 2J mice) does the source give for `Clc1cccc2c1-c1nccn1Cc1c(-c3nc(C4CC4)no3)ncn1-2` [H, 4-chloro-10-(3-cyclopropyl-1,2,4-oxadiazol-5-yl)-9H-diimidazo[1,5-a:1',2'-d][1,4]benzodiazepine] here?
Answer: 0.0039 mg/kg

Question: And the pIC50 [1]?
Answer: 9.54

Question: What about the minimal effective dose (rat) of the same compound?
Answer: 0.001 mg/kg

Question: What about the ED50 [2] of the same compound?
Answer: 0.1 mg/kg

Question: For `Clc1cccc2c1-c1nccn1Cc1c(-c3noc(C4CC4)n3)ncn1-2` [I, 4-chloro-10-(5-cyclopropyl-1,2,4-oxadiazol-3-yl)-9H-diimidazo[1,5-a:1',2'-d][1,4]benzodiazepine], which ED50 (Male DBA 2J mice) is on record?
Answer: 0.00011 mg/kg

Question: And the pIC50 [1]?
Answer: 9.52

Question: What about the minimal effective dose (rat) of the same compound?
Answer: 0.03 mg/kg

Reference: patent US5387585A, “Imidazodiazepine derivatives” (Hoffmann-La Roche Inc., priority 1991, dated 1995)
